# Data as given in US8440632B2, “Protopanaxadiol-type ginsenoside compositions and uses thereof” (Raptor Therapeutics Inc., priority 2008, dated 2013).
# What was measured:
# [1] = test system: alcohol dehydrogenase (ADH); experiment: Alcohol dehydrogenase (ADH) activity, colorimetric assay; format: biochemical; details: 5, 50 or 500 μg/mL, relative to ADH activity in the absence of ginsenoside (FIG. 1)
# Description: Ginsenosides Rb1, Rb2, Rc, Rd, Re and Rg1 were obtained from ChromaDex Inc., Irvine, Calif., USA. The ginsenosides were dissolved in DMSO to prepare a stock solution. Prior to performing an activity assay, portions of a ginsenosides stock solution were diluted in aqueous reaction buffer solution and from which samples were taken and assayed for activity.
# ADH activity was measured in a colorimetric assay as described in Gibla and Gonzalex-Durante, J. Biochem. Biophys. Methods 1993, 26, 87-93, the contents of which are incorporated by reference herein in its entirety.
# [2] = target: T1, aldehyde dehydrogenase (ALDH) (Saccharomyces cerevisiae, UniProt P46367); experiment: Aldehyde dehydrogenase (ALDH) activity assay, conversion of acetaldehyde into acetic acid; format: biochemical; details: 5, 50 or 500 μg/mL, relative to ALDH activity in the absence of ginsenoside (FIG. 3)
# T1 construct: purchased Sigma-Aldrich A 6338
# T1 sequence (P46367 25-519): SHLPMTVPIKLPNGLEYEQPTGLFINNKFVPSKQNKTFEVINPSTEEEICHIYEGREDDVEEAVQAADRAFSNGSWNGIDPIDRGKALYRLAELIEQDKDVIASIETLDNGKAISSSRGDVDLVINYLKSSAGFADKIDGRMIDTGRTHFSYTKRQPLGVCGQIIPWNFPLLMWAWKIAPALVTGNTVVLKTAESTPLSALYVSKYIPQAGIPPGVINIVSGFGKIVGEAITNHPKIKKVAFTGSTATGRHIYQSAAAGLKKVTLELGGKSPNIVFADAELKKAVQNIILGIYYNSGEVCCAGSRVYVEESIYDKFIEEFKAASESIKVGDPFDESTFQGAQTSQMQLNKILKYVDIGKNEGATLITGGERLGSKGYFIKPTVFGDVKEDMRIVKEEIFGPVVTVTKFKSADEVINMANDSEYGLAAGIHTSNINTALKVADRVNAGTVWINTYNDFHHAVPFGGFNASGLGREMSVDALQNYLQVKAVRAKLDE
# Description: Stock solutions of ginsenosides Rb1, Rb2, Rc, Rd, Re and Rg1 in DMSO as described above, were prepared. ALDH was obtained from Sigma-Aldrich (product no. A 6338). Enzyme activity assays were performed in vitro according to instructions supplied by the vendor as modified by the addition of test substances, which is based on assay described in Bostian et al., Biochemical Journal 1978, 173, 773-786, the contents of which are incorporated by reference herein in their entirety. This assay measures the conversion of acetaldehyde into acetic acid via […] by ALDH catalysis.
compound,measurement,setting,value
CC(C)=CCC[C@](C)(O[C@@H]1O[C@H](CO[C@@H]2O[C@H](CO)[C@@H](O)[C@H](O)[C@H]2O)[C@@H](O)[C@H](O)[C@H]1O)[C@H]1CC[C@]2(C)[C@@H]1[C@H](O)C[C@@H]1[C@@]3(C)CC[C@H](O[C@@H]4O[C@H](CO)[C@@H](O)[C@H](O)[C@H]4O[C@@H]4O[C@H](CO)[C@@H](O)[C@H](O)[C@H]4O)C(C)(C)[C@@H]3CC[C@]12C [ginsenoside Rb1],effect on ADH activity,[1],reduced ADH activity
same,effect on ALDH activity,[2],increased ALDH activity
CC(C)=CCC[C@](C)(O[C@@H]1O[C@H](CO[C@@H]2OC[C@H](O)[C@H](O)[C@H]2O)[C@@H](O)[C@H](O)[C@H]1O)[C@H]1CC[C@]2(C)[C@@H]1[C@H](O)C[C@@H]1[C@@]3(C)CC[C@H](O[C@@H]4O[C@H](CO)[C@@H](O)[C@H](O)[C@H]4O[C@@H]4O[C@H](CO)[C@@H](O)[C@H](O)[C@H]4O)C(C)(C)[C@@H]3CC[C@]12C [ginsenoside Rb2],effect on ADH activity,[1],reduced ADH activity
same,effect on ALDH activity,[2],increased ALDH activity
CC(C)=CCC[C@](C)(O[C@@H]1O[C@H](CO[C@@H]2O[C@@H](CO)[C@H](O)[C@H]2O)[C@@H](O)[C@H](O)[C@H]1O)[C@H]1CC[C@]2(C)[C@@H]1[C@H](O)C[C@@H]1[C@@]3(C)CC[C@H](O[C@@H]4O[C@H](CO)[C@@H](O)[C@H](O)[C@H]4O[C@@H]4O[C@H](CO)[C@@H](O)[C@H](O)[C@H]4O)C(C)(C)[C@@H]3CC[C@]12C [ginsenoside Rc],effect on ADH activity,[1],reduced ADH activity
same,effect on ALDH activity,[2],increased ALDH activity
CC(C)=CCC[C@](C)(O[C@@H]1O[C@H](CO)[C@@H](O)[C@H](O)[C@H]1O)[C@H]1CC[C@]2(C)[C@@H]1[C@H](O)C[C@@H]1[C@@]3(C)CC[C@H](O[C@@H]4O[C@H](CO)[C@@H](O)[C@H](O)[C@H]4O[C@@H]4O[C@H](CO)[C@@H](O)[C@H](O)[C@H]4O)C(C)(C)[C@@H]3CC[C@]12C [ginsenoside Rd],effect on ADH activity,[1],reduced ADH activity
same,effect on ALDH activity,[2],increased ALDH activity
"CC(C)=CCC[C@](C)(O[C@@H]1O[C@H](CO)[C@@H](O)[C@H](O)[C@H]1O)[C@H]1CC[C@]2(C)[C@@H]1[C@H](O)C[C@@H]1[C@@]3(C)CC[C@H](O)C(C)(C)[C@@H]3[C@@H](O[C@@H]3O[C@H](CO)[C@@H](O)[C@H](O)[C@H]3O[C@@H]3O[C@@H](C)[C@H](O)[C@@H](O)[C@H]3O)C[C@]12C [ginsenoside Re, reference compound]",effect on ADH activity,[1],did not have a significant effect on ADH activity
same,effect on ALDH activity,[2],did not have a significant effect on ALDH activity
"CC(C)=CCC[C@](C)(O[C@@H]1O[C@H](CO)[C@@H](O)[C@H](O)[C@H]1O)[C@H]1CC[C@]2(C)[C@@H]1[C@H](O)C[C@@H]1[C@@]3(C)CC[C@H](O)C(C)(C)[C@@H]3[C@@H](O[C@@H]3O[C@H](CO)[C@@H](O)[C@H](O)[C@H]3O)C[C@]12C [ginsenoside Rg1, reference compound]",effect on ADH activity,[1],did not have a significant effect on ADH activity
same,effect on ALDH activity,[2],did not have a significant effect on ALDH activity
